Measured values reported in US8846933B2, “N-link hydroxamic acid derivatives useful as antibacterial agents” (Pfizer Inc., priority 2009, dated 2014).

Columns and labels:
Type in all cases: cell-based
[1] = system: Escherichia coli EC-1: VOGEL, mouse virulent; experiment: MIC determination (CLSI), strain EC-1; settings: Escherichia coli EC-1, VOGEL, mouse virulent; unit assumed
Procedure, shortened: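 The mouse-virulent VOGEL isolate of E. coli, EC-1, served as test organism. Minimum inhibitory concentration was measured by CLSI dilution methodology (M7-A7; M100-S18 standards).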

[2] = system: Pseudomonas aeruginosa UI-18: Wild-type (PA-7); experiment: MIC determination (CLSI), strain PA-7; settings: Pseudomonas aeruginosa UI-18, wild-type; unit assumed
Procedure, shortened: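 Strain tested was P. aeruginosa UI-18, a wild-type isolate labelled PA-7. Minimum inhibitory concentrations followed CLSI dilution methodology for aerobically growing bacteria (M7-A7, M100-S18).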

[3] = system: Acinetobacter baumanii/haemolyticus: Multidrug-resistant clinical isolate (AB-3167); experiment: MIC determination (CLSI), strain AB-3167; settings: unit assumed
Experimental: The in vitro antibacterial activity of compounds described in the Examples was evaluated by minimum inhibitory concentration (MIC) testing according to Clinical and Laboratory Standards Institute (CLSI, formerly NCCLS) guidelines. See: Clinical and Laboratory Standards Institute. Methods for Dilution Antimicrobial Susceptibility Tests for Bacteria that Grow Aerobically; Approved Standard-Seventh Edition. CLSI document M7-A7 [ISBN 1-56238-587-9]. Clinical and Laboratory Standards Institute, 940 West Valley Road, Suite 1400, Wayne, Pa. 19087-1898 USA, 2006; also Clinical and Laboratory Standards Institute. Performance Standards for Antimicrobial Susceptibility Testing; Eighteenth Informational Supplement. CLSI document M100-S18 [ISBN1-56238-653-0].Clinical and Laboratory Standards Institute.
The following bacterial strains were used in these MIC determinations:
2) Acinetobacter baumanii/haemolyticus: Multidrug-resistant clinical isolate labeled as AB-3167 in Tables 4 and 5;

SMILES: C[C@@](CCn1ccc(CCc2ccccc2)cc1=O)(C(=O)NO)S(C)(=O)=O [Example 3, (2R)-N-hydroxy-2-methyl-2-(methylsulfonyl)-4-[2-oxo-4-(2-phenylethyl)pyridin-1(2H)-yl]butanamide]
- EC-1 (MIC) [1]: 1 µg/mL
- PA-7 (MIC) [2]: 4 µg/mL
- AB-3167 (MIC) [3]: 64 µg/mL

SMILES: C[C@@](CCn1ccc(-c2ccc(-c3ccccc3)s2)cc1=O)(C(=O)NO)S(C)(=O)=O [Example 68-P, (2R)-N-hydroxy-2-methyl-2-(methylsulfonyl)-4-[2-oxo-4-(5-phenyl-2-thienyl)pyridin-1(2H)-yl]butanamide]
- EC-1 (MIC) [1]: 0.06 µg/mL
- PA-7 (MIC) [2]: 8 µg/mL
- AB-3167 (MIC) [3]: > 64 µg/mL

SMILES: CC(C)(O)COc1ccc(-c2ccn(CCC(C)(C(=O)NO)S(C)(=O)=O)c(=O)c2)cc1 (stereo not drawn) [Example 10-J, N-hydroxy-4-{4-[4-(2-hydroxy-2-methylpropoxy)phenyl]-2-oxopyridin-1(2H)-yl}-2-methyl-2-(methylsulfonyl)butanamide]
- EC-1 (MIC) [1]: 4 µg/mL
- PA-7 (MIC) [2]: 8 µg/mL
- AB-3167 (MIC) [3]: > 64 µg/mL

SMILES: C[C@@](CCn1ccc(-c2ccc([C@H]3C[C@@](C)(O)C3)cc2)cc1=O)(C(=O)NO)S(C)(=O)=O [Example 68-H, (2R)-N-hydroxy-4-{4-[4-(cis-3-hydroxy-3-methylcyclobutyl)phenyl]-2-oxopyridin-1(2H)-yl}-2-methyl-2-(methylsulfonyl)butanamide]
- EC-1 (MIC) [1]: 2 µg/mL
- PA-7 (MIC) [2]: 1 µg/mL
- AB-3167 (MIC) [3]: > 64 µg/mL

SMILES: COc1ccc(-c2ccn(CC[C@](C)(C(=O)NO)S(C)(=O)=O)c(=O)c2)cc1 [Example 17, (2R)-N-hydroxy-4-[4-(4-methoxyphenyl)-2-oxopyridin-1(2H)-yl]-2-methyl-2-(methylsulfonyl)butanamide]
- EC-1 (MIC) [1]: 0.5 µg/mL
- PA-7 (MIC) [2]: 0.5 µg/mL
- AB-3167 (MIC) [3]: > 64 µg/mL

SMILES: CC(CCn1ccc(-c2ccc(-c3ccncc3)cc2)cc1=O)(C(=O)NO)S(C)(=O)=O (racemic) [Example 35, N-Hydroxy-2-methyl-2-(methylsulfonyl)-4-[2-oxo-4-(4-pyridin-4-ylphenyl)pyridin-1(2H)-yl]butanamide]
- EC-1 (MIC) [1]: 0.5 µg/mL
- PA-7 (MIC) [2]: 2 µg/mL
- AB-3167 (MIC) [3]: > 64 µg/mL

SMILES: Cc1nccc(-c2ccc(-c3ccn(CC[C@](C)(C(=O)NO)S(C)(=O)=O)c(=O)c3)cc2)n1 [Example 23, (2R)-N-hydroxy-2-methyl-4-{4-[4-(2-methylpyrimidin-4-yl)phenyl]-2-oxopyridin-1(2H)-yl}-2-(methylsulfonyl)butanamide]
- EC-1 (MIC) [1]: 2 µg/mL
- PA-7 (MIC) [2]: 2 µg/mL
- AB-3167 (MIC) [3]: > 64 µg/mL

SMILES: C[C@@](CCn1ccc(-c2ccc(Cl)c(Cl)c2)cc1=O)(C(=O)NO)S(C)(=O)=O [Example 68-C, (2R)-4-[4-(3,4-dichlorophenyl)-2-oxopyridin-1(2H)-yl]-N-hydroxy-2-methyl-2-(methylsulfonyl)butanamide]
- EC-1 (MIC) [1]: 0.125 µg/mL
- PA-7 (MIC) [2]: 0.5 µg/mL
- AB-3167 (MIC) [3]: > 64 µg/mL

SMILES: C[C@@](CCn1ccc(-c2ccccc2)cc1=O)(C(=O)NO)S(C)(=O)=O [Example 11, (2R)-N-Hydroxy-2-methyl-2-(methylsulfonyl)-4-(2-oxo-4-phenylpyridin-1(2H)-yl)butanamide]
- EC-1 (MIC) [1]: 8 µg/mL
- PA-7 (MIC) [2]: 1 µg/mL
- AB-3167 (MIC) [3]: 64 µg/mL

SMILES: Cc1c(-c2ccccc2)ccn(CCC(C)(C(=O)NO)S(C)(=O)=O)c1=O (stereo not drawn) [Example 52, N-Hydroxy-2-methyl-4-(3-methyl-2-oxo-4-phenylpyridin-1(2H)-yl)-2-(methylsulfonyl)butanamide]
- EC-1 (MIC) [1]: 2 µg/mL
- PA-7 (MIC) [2]: 4 µg/mL
- AB-3167 (MIC) [3]: > 64 µg/mL

SMILES: C[C@@](CCn1ccc(-c2cccc(Cl)c2F)cc1=O)(C(=O)NO)S(C)(=O)=O [Example 45, (2R)-4-[4-(3-chloro-2-fluorophenyl)-2-oxopyridin-1(2H)-yl]-N-hydroxy-2-methyl-2-(methylsulfonyl)butanamide]
- EC-1 (MIC) [1]: 0.25 µg/mL
- PA-7 (MIC) [2]: 0.5 µg/mL
- AB-3167 (MIC) [3]: > 64 µg/mL

SMILES: C[C@@](CCn1ccc(-c2ccc(OC[C@H]3CC[C@H](O)CC3)cc2)cc1=O)(C(=O)NO)S(C)(=O)=O [Example 9, (2R)-N-hydroxy-4-[4-{4-[(trans-4-hydroxycyclohexyl)methoxy]phenyl}-2-oxopyridin-1(2H)-yl]-2-methyl-2-(methylsulfonyl)butanamide]
- EC-1 (MIC) [1]: 0.25 µg/mL
- PA-7 (MIC) [2]: 1 µg/mL
- AB-3167 (MIC) [3]: 32 µg/mL

SMILES: CC(CCn1ccc(C2CCCCC2)cc1=O)(C(=O)NO)S(C)(=O)=O (stereo not drawn) [Example 53, 4-(4-Cyclohexyl-2-oxopyridin-1(2H)-yl)-N-hydroxy-2-methyl-2-(methylsulfonyl)butanamide]
- EC-1 (MIC) [1]: 16 µg/mL
- PA-7 (MIC) [2]: 8 µg/mL
- AB-3167 (MIC) [3]: > 64 µg/mL

SMILES: C[C@@](CCn1ccc(-c2ccc(OCCC3CC(O)C3)cc2)cc1=O)(C(=O)NO)S(C)(=O)=O (stereo partly drawn) [Example 32, (2R)-N-hydroxy-4-[4-{4-[2-(3-hydroxycyclobutyl)ethoxy]phenyl}-2-oxopyridin-1(2H)-yl]-2-methyl-2-(methylsulfonyl)butanamide]
- EC-1 (MIC) [1]: 0.25 µg/mL
- PA-7 (MIC) [2]: 1 µg/mL
- AB-3167 (MIC) [3]: > 64 µg/mL

SMILES: CC(CCn1ccc(OCCCC2CCCCC2)cc1=O)(C(=O)NO)S(C)(=O)=O (stereo not drawn) [Example 66, 4-[4-(3-Cyclohexylpropoxy)-2-oxopyridin-1(2H)-yl]-N-hydroxy-2-methyl-2-(methylsulfonyl)butanamide]
- EC-1 (MIC) [1]: 1 µg/mL
- PA-7 (MIC) [2]: 8 µg/mL
- AB-3167 (MIC) [3]: 2 µg/mL

SMILES: C[C@@](CCn1ccc(-c2ccc(-c3nccs3)cc2)cc1=O)(C(=O)NO)S(C)(=O)=O [Example 68-D, (2R)-N-hydroxy-2-methyl-2-(methylsulfonyl)-4-{2-oxo-4-[4-(1,3-thiazol-2-yl)phenyl]pyridin-1(2H)-yl}butanamide]
- EC-1 (MIC) [1]: 0.06 µg/mL
- PA-7 (MIC) [2]: 0.5 µg/mL
- AB-3167 (MIC) [3]: > 64 µg/mL

SMILES: C[C@@](CCn1ccc(-c2ccc(Cl)c(F)c2)cc1=O)(C(=O)NO)S(C)(=O)=O [Example 68-B, (2R)-4-[4-(4-chloro-3-fluorophenyl)-2-oxopyridin-1(2H)-yl]-N-hydroxy-2-methyl-2-(methylsulfonyl)butanamide]
- EC-1 (MIC) [1]: 0.5 µg/mL
- PA-7 (MIC) [2]: 0.5 µg/mL
- AB-3167 (MIC) [3]: > 64 µg/mL

SMILES: C[C@@](CCn1ccc(-c2ccccc2)c(F)c1=O)(C(=O)NO)S(C)(=O)=O [Example 55, (2R)-4-(3-fluoro-2-oxo-4-phenylpyridin-1(2H)-yl)-N-hydroxy-2-methyl-2-(methylsulfonyl)butanamide]
- EC-1 (MIC) [1]: 8 µg/mL
- PA-7 (MIC) [2]: 1 µg/mL
- AB-3167 (MIC) [3]: > 64 µg/mL

SMILES: C[C@@](CCn1ccc(-c2ccc(OC(F)F)cc2F)cc1=O)(C(=O)NO)S(C)(=O)=O [Example 28, (2R)-4-{4-[4-(difluoromethoxy)-2-fluorophenyl]-2-oxopyridin-1(2H)-yl}-N-hydroxy-2-methyl-2-(methylsulfonyl)butanamide]
- EC-1 (MIC) [1]: 0.25 µg/mL
- PA-7 (MIC) [2]: 0.5 µg/mL
- AB-3167 (MIC) [3]: > 64 µg/mL

SMILES: C[C@@](CCn1ccc(-c2cccc(Cl)c2Cl)cc1=O)(C(=O)NO)S(C)(=O)=O [Example 46, (2R)-4-[4-(2,3-dichlorophenyl)-2-oxopyridin-1(2H)-yl]-N-hydroxy-2-methyl-2-(methylsulfonyl)butanamide]
- EC-1 (MIC) [1]: 0.25 µg/mL
- PA-7 (MIC) [2]: 0.5 µg/mL
- AB-3167 (MIC) [3]: > 64 µg/mL

SMILES: C[C@@](CCn1ccc(-c2ccc([C@H]3C[C@@H](O)C3)cc2)cc1=O)(C(=O)NO)S(C)(=O)=O [Example 5, (2R)-N-hydroxy-4-{4-[4-(cis-3-hydroxycyclobutyl)phenyl]-2-oxopyridin-1(2H)-yl}-2-methyl-2-(methylsulfonyl)butanamide]
- EC-1 (MIC) [1]: 4 µg/mL
- PA-7 (MIC) [2]: 2 µg/mL
- AB-3167 (MIC) [3]: > 64 µg/mL
